Measured values published in patent US20260374756A1, “HETEROCYCLIC COMPOUNDS AS INHIBITORS OF MONOACYLGLYCEROL LIPASE (MAGL)” (Hoffmann-La Roche Inc., priority 2022, published 2026).

Each compound was assayed against T1, hMAGL (Homo sapiens, UniProt Q99685) (assay: 2-AG assay: MAGL inhibition, hydrolysis of 2-arachidonoylglycerol to arachidonic acid followed by mass spectrometry).
T1 sequence (Q99685 1-303): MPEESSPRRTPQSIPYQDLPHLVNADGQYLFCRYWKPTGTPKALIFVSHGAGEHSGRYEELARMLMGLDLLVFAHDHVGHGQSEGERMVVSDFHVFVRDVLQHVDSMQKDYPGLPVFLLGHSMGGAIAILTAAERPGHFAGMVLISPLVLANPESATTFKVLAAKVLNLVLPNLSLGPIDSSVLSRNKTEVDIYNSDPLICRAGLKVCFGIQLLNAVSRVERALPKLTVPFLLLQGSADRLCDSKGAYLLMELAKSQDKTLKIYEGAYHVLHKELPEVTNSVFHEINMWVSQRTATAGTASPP
Assay type: biochemical
Method in brief: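 Read-out is LC-MS/MS of arachidonic acid released from 2-arachidonoylglycerol (8 μM final), normalised to d8-arachidonic acid internal standard after acetonitrile quench. Enzyme […] and compound were pre-mixed 15 min, then reacted 30 min, both at RT, in Tris/EDTA buffer with 0.01% Tween-20 and 2.5% DMSO.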

| Structure (SMILES) | IC50 [nM] |
| --- | --- |
| Cc1cc(C2CC2)nn1CC1CC2(C1)CN(C(=O)N1CC3(CC(n4cnc(C5CC5)n4)C3)C1)C2 [Example 135, [6-[(3-cyclopropyl-5-methyl-pyrazol-1-yl)methyl]-2-azaspiro[3.3]heptan-2-yl]-[6-(3-cyclopropyl-1,2,4-triazol-1-yl)-2-azaspiro[3.3]heptan-2-yl]methanone] | 0.23 |
| CC(C)(C)c1csc(CN2CC3(C2)CN(C(=O)N2CC4(CC(n5cnc(C6CC6)n5)C4)C2)C3)n1 [Example 201, [6-[(4-tert-butylthiazol-2-yl)methyl]-2,6-diazaspiro[3.3]heptan-2-yl]-[6-(3-cyclopropyl-1,2,4-triazol-1-yl)-2-azaspiro[3.3]heptan-2-yl]methanone] | 0.64 |
| O=C(N1CC2(CC(n3cnc(C4(O)CC4)n3)C2)C1)N1CC2(CN(Cc3ncc(C(F)F)s3)C2)C1 [Example 186] | 84.1 |
| O=C(N1CC2(CC(n3cnc(C4CC4)n3)C2)C1)N1CC2(CN(Cc3nc(C(F)(F)F)cs3)C2)C1 [Example 53, [6-(3-cyclopropyl-1,2,4-triazol-1-yl)-2-azaspiro[3.3]heptan-2-yl]-[6-[[4-(trifluoromethyl)thiazol-2-yl]methyl]-2,6-diazaspiro[3.3]heptan-2-yl]methanone] | 2.62 |
| CCc1nsc(CN2CC3(C2)CN(C(=O)N2CC4(CC(n5cnc(C(F)(F)F)n5)C4)C2)C3)n1 [Example 286, [6-[(3-ethyl-1,2,4-thiadiazol-5-yl)methyl]-2,6-diazaspiro[3.3]heptan-2-yl]-[6-[3-(trifluoromethyl)-1,2,4-triazol-1-yl]-2-azaspiro[3.3]heptan-2-yl]methanone] | 120 |
| N#Cc1cnn(CC2CC3(C2)CN(C(=O)N2CC4(CC(c5cc(C6CC6)n[nH]5)C4)C2)C3)c1 [Example 37] | 4.3 |
| Cn1ncc(C(F)(F)F)c1CN1CC2(C1)CN(C(=O)N1CC3(CC(n4cnc(C(F)(F)F)n4)C3)C1)C2 [Example 158, [6-[[2-methyl-4-(trifluoromethyl)pyrazol-3-yl]methyl]-2,6-diazaspiro[3.3]heptan-2-yl]-[6-[3-(trifluoromethyl)-1,2,4-triazol-1-yl]-2-azaspiro[3.3]heptan-2-yl]methanone] | 9.26 |
| O=C(N1CC2(CC(Cc3n[nH]c(C4CC4)n3)C2)C1)N1CC2(CC(n3cnc(C(F)F)n3)C2)C1 [Example 318, [6-[(5-cyclopropyl-1H-1,2,4-triazol-3-yl)methyl]-2-azaspiro[3.3]heptan-2-yl]-[6-[3-(difluoromethyl)-1,2,4-triazol-1-yl]-2-azaspiro[3.3]heptan-2-yl]methanone] | 62.8 |
| CC(C)(C)c1nnc(CN2CC3(C2)CN(C(=O)N2CC4(CC(n5cnc(C6(O)CC6)n5)C4)C2)C3)s1 [Example 210, [6-[(5-tert-butyl-1,3,4-thiadiazol-2-yl)methyl]-2,6-diazaspiro[3.3]heptan-2-yl]-[6-[3-(1-hydroxycyclopropyl)-1,2,4-triazol-1-yl]-2-azaspiro[3.3]heptan-2-yl]methanone] | 28 |
| O=C(N1CC2(CC(n3cnc(C4CC4)n3)C2)C1)N1CC2(CN(Cc3nc(C(F)(F)F)co3)C2)C1 [Example 217, [6-(3-cyclopropyl-1,2,4-triazol-1-yl)-2-azaspiro[3.3]heptan-2-yl]-[6-[[4-(trifluoromethyl)oxazol-2-yl]methyl]-2,6-diazaspiro[3.3]heptan-2-yl]methanone] | 13.7 |
| O=C(N1CC2(CC(n3cnc(C4(O)CC4)n3)C2)C1)N1CC2(CN(Cc3nnc(C(F)(F)F)s3)C2)C1 [Example 84, [6-[3-(1-hydroxycyclopropyl)-1,2,4-triazol-1-yl]-2-azaspiro[3.3]heptan-2-yl]-[6-[[5-(trifluoromethyl)-1,3,4-thiadiazol-2-yl]methyl]-2,6-diazaspiro[3.3]heptan-2-yl]methanone] | 2090 |
| O=C(N1CC2(CCN(Cc3nc(C(F)(F)F)cs3)CC2)C1)N1CC2(CC(c3cc(C4CC4)n[nH]3)C2)C1 [Example 174, [6-(3-cyclopropyl-1H-pyrazol-5-yl)-2-azaspiro[3.3]heptan-2-yl]-[7-[[4-(trifluoromethyl)thiazol-2-yl]methyl]-2,7-diazaspiro[3.5]nonan-2-yl]methanone] | 4.84 |
| O=C(N1CC2(CC(n3cnc(C(F)(F)F)n3)C2)C1)N1CC2(CN(Cc3ccnn3CC(F)(F)F)C2)C1 [Example 222] | 205 |
| Cc1c(CN2CC3(C2)CN(C(=O)N2CC4(CC(n5cnc(C6CC6)n5)C4)C2)C3)cnn1CC(F)(F)F [Example 115, [6-(3-cyclopropyl-1,2,4-triazol-1-yl)-2-azaspiro[3.3]heptan-2-yl]-[6-[[5-methyl-1-(2,2,2-trifluoroethyl)pyrazol-4-yl]methyl]-2,6-diazaspiro[3.3]heptan-2-yl]methanone] | 38.2 |
| O=C(N1CC2(CC(n3cnc(C4CC4)n3)C2)C1)N1CC2(CN(Cc3conc3C(F)(F)F)C2)C1 [Example 219, [6-(3-cyclopropyl-1,2,4-triazol-1-yl)-2-azaspiro[3.3]heptan-2-yl]-[6-[[3-(trifluoromethyl)isoxazol-4-yl]methyl]-2,6-diazaspiro[3.3]heptan-2-yl]methanone] | 8.82 |

Second part, the compound after the results:

| IC50 [nM] | Structure (SMILES) |
| --- | --- |
| 1.1 | O=C(N1CC2(CC(Cc3nc(C4CC4)n[nH]3)C2)C1)N1CC2(CC(c3cc(C4CC4)n[nH]3)C2)C1 [Example 301, [6-(3-cyclopropyl-1H-pyrazol-5-yl)-2-azaspiro[3.3]heptan-2-yl]-[6-[(3-cyclopropyl-1H-1,2,4-triazol-5-yl)methyl]-2-azaspiro[3.3]heptan-2-yl]methanone] |
| 79 | O=C(N1CC2(CC(n3cnc(C4CC4)n3)C2)C1)N1CC2(CN(Cc3cnn(CC(F)(F)F)n3)C2)C1 [Example 196, [6-(3-cyclopropyl-1,2,4-triazol-1-yl)-2-azaspiro[3.3]heptan-2-yl]-[6-[[2-(2,2,2-trifluoroethyl)triazol-4-yl]methyl]-2,6-diazaspiro[3.3]heptan-2-yl]methanone] |
| 3.74 | CC(C)(C)c1nnc(CN2CC3(C2)CN(C(=O)N2CC4(CC(n5cnc(C(F)(F)F)n5)C4)C2)C3)s1 [Example 208, [6-[(5-tert-butyl-1,3,4-thiadiazol-2-yl)methyl]-2,6-diazaspiro[3.3]heptan-2-yl]-[6-[3-(trifluoromethyl)-1,2,4-triazol-1-yl]-2-azaspiro[3.3]heptan-2-yl]methanone] |
| 76.3 | O=C(N1CC2(CC(n3cnc(C(F)(F)F)n3)C2)C1)N1CC2(CN(Cc3nc(CC4CC4)no3)C2)C1 [Example 264, [6-[[3-(cyclopropylmethyl)-1,2,4-oxadiazol-5-yl]methyl]-2,6-diazaspiro[3.3]heptan-2-yl]-[6-[3-(trifluoromethyl)-1,2,4-triazol-1-yl]-2-azaspiro[3.3]heptan-2-yl]methanone] |
| 251 | O=C(N1CC2(CCN(Cc3cc(C(F)(F)F)on3)CC2)C1)N1CC2(CC(n3cnc(C4(O)CC4)n3)C2)C1 [Example 81, [6-[3-(1-hydroxycyclopropyl)-1,2,4-triazol-1-yl]-2-azaspiro[3.3]heptan-2-yl]-[7-[[5-(trifluoromethyl)isoxazol-3-yl]methyl]-2,7-diazaspiro[3.5]nonan-2-yl]methanone] |
| 0.47 | Cn1ncc(CC2CC3(C2)CN(C(=O)N2CC4(CC(n5cnc(C6(O)CC6)n5)C4)C2)C3)c1C(F)(F)F [Example 1, [6-[3-(1-hydroxycyclopropyl)-1,2,4-triazol-1-yl]-2-azaspiro[3.3]heptan-2-yl]-[6-[[1-methyl-5-(trifluoromethyl)pyrazol-4-yl]methyl]-2-azaspiro[3.3]heptan-2-yl]methanone] |
| 311 | Cc1onc(C2CC2)c1CN1CC2(C1)CN(C(=O)N1CC3(CC(n4cnc(C5(O)CC5)n4)C3)C1)C2 [Example 269, [6-[(3-cyclopropyl-5-methyl-isoxazol-4-yl)methyl]-2,6-diazaspiro[3.3]heptan-2-yl]-[6-[3-(1-hydroxycyclopropyl)-1,2,4-triazol-1-yl]-2-azaspiro[3.3]heptan-2-yl]methanone] |
| 10.6 | CC(C)(C)c1ncc(CN2CC3(C2)CN(C(=O)N2CC4(CC(n5cnc(C(F)(F)F)n5)C4)C2)C3)s1 [Example 56, [6-[(2-tert-butylthiazol-5-yl)methyl]-2,6-diazaspiro[3.3]heptan-2-yl]-[6-[3-(trifluoromethyl)-1,2,4-triazol-1-yl]-2-azaspiro[3.3]heptan-2-yl]methanone] |
| 15.3 | O=C(N1CC2(CC(n3cnc(C(F)(F)F)n3)C2)C1)N1CC2(CN(Cc3ncc(C(F)F)s3)C2)C1 [Example 187, [6-[[5-(difluoromethyl)thiazol-2-yl]methyl]-2,6-diazaspiro[3.3]heptan-2-yl]-[6-[3-(trifluoromethyl)-1,2,4-triazol-1-yl]-2-azaspiro[3.3]heptan-2-yl]methanone] |
| 8.61 | O=C(N1CC2(CCN(Cc3cc(C(F)(F)F)on3)CC2)C1)N1CC2(CC(n3cnc(C4CC4)n3)C2)C1 [Example 80, [6-(3-cyclopropyl-1,2,4-triazol-1-yl)-2-azaspiro[3.3]heptan-2-yl]-[7-[[5-(trifluoromethyl)isoxazol-3-yl]methyl]-2,7-diazaspiro[3.5]nonan-2-yl]methanone] |
| 2 | CC(C)(C)c1noc(CN2CC3(C2)CN(C(=O)N2CC4(CC(n5cnc(C6CC6)n5)C4)C2)C3)n1 [Example 266, [6-[(3-tert-butyl-1,2,4-oxadiazol-5-yl)methyl]-2,6-diazaspiro[3.3]heptan-2-yl]-[6-(3-cyclopropyl-1,2,4-triazol-1-yl)-2-azaspiro[3.3]heptan-2-yl]methanone] |
| 0.08 | O=C(N1CC2(CC(Cc3cn(CC(F)(F)F)nc3C(F)(F)F)C2)C1)N1CC2(CC(n3cnc(C4CC4)n3)C2)C1 [Example 122] |
